In paper PMC10734772 (Turkish Journal of Chemistry, 2021):

| SMILES | melting point [°C] |
| --- | --- |
| COc1ccc(CN2CCN(Cc3ccc(C(=O)Nc4ccc(C)c(Nc5cc(C)ccn5)c4)cc3)CC2)c(OC)c1OC [Compound 10, N-(4-Methyl-3-((4-methylpyridin-2-yl)amino)phenyl)-4-((4-(2,3,4-trimethoxybenzyl)piperazin-1-yl)methyl)benzamide] | 87 |
| Cc1ccnc(Nc2cc(NC(=O)c3ccc(CN4CCN(c5ncccn5)CC4)cc3)ccc2C)n1 [Compound 5, N-(4-Methyl-3-((4-methylpyrimidin-2-yl)amino)phenyl)-4-((4-(pyrimidin-2-yl)piperazin-1-yl)methyl)benzamide] | 89 |

Second part, the molecule after the results:

| melting point [°C] | SMILES |
| --- | --- |
| 143 | Cc1ccc(NC(=O)c2ccc(CN3CCN(c4ncccn4)CC3)cc2)cc1Nc1cnccn1 [Compound 7, N-(4-Methyl-3-(pyrazin-2-ylamino)phenyl)-4-((4-(pyrimidin-2-yl)piperazin-1-yl)methyl)benzamide] |
| 155 to 157 | Cc1ccnc(Nc2cc(NC(=O)c3ccc(CN4CCOCC4)cc3)ccc2C)c1 [Compound 9, N-(4-Methyl-3-((4-methylpyridin-2-yl)amino)phenyl)-4-(morhpolinomethyl)benzamide] |
| 157 | Cc1ccnc(Nc2cc(NC(=O)c3ccc(CN4CCOCC4)cc3)ccc2C)n1 [Compound 8, N-(4-Methyl-3-((4-methylpyrimidin-2-yl)amino)phenyl)-4-(morhpolinomethyl)benzamide] |
